Reference: patent US7713994B2 (Wyeth LLC, priority 2005, dated 2010)

How the values were obtained:
HCT-116 = assay: Cytotoxicity assay (SRB), HCT-116; type: cell-based; conditions: Homo sapiens, HCT-116, 72 h, HCT116 cells, SRB, three days; read-out: In Vitro Cellular Activity IC50 HCT116
Method in brief: (§1)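 Plate cells, let them attach overnight, add compound dilutions in RPMI 1640/5% FBS, and incubate 3 days (BT474 6 days). Then fix with TCA, stain with SRB, dissolve the dye in Tris and read at 540 nm.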

cyclin E/CDK2 enzyme = molecular target: T1, cyclin E/CDK2 enzyme (Homo sapiens, UniProt P24941); assay: CDK2 ELISA kinase assay (phospho-Rb ser 795 detection); type: biochemical; conditions: In Vitro Enzyme Assays, read-out: CDK2 IC50
T1 construct: made in house; host or cells: Sf9 insect cells, recombinant baculovirus
Method in brief: (§2)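 Inhibition was derived from A450 relative to control wells lacking compound, following an anti-phospho-Rb Ser795 sandwich of HRP detection. The reactions combined coated GST-Rb fragment, 200 μM ATP and baculovirus-expressed cyclin/CDK enzymes, incubated for 1 h at 30° C.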

MCF-7 = assay: Cytotoxicity assay (SRB), MCF-7; type: cell-based; conditions: Homo sapiens, MCF7, 72 h, MCF-7 cells, SRB, three days; read-out: In Vitro Cellular Activity IC50 MCF-7
Method in brief: as §1

cyclin D1/cdk 4 enzyme = molecular target: T2, cyclin D1/cdk 4 enzyme (Homo sapiens, UniProt P11802); assay: CDK4 ELISA kinase assay (phospho-Rb ser 795 detection); type: biochemical; conditions: In Vitro Enzyme Assays, 200 μM ATP, read-out: CDK4 IC50
T2 construct: made in house; host or cells: Sf9 insect cells, recombinant baculovirus
Method in brief: as §2

LoVo = assay: Cytotoxicity assay (SRB), LoVo; type: cell-based; conditions: Homo sapiens, LoVo, 72 h, LoVo cells, SRB, three days; read-out: In Vitro Cellular Activity IC50 LOVO
Method in brief: as §1

BT474 = assay: Cytotoxicity assay (SRB), BT474; type: cell-based; conditions: Homo sapiens, BT-474, 144 h, BT474 cells, SRB, 6 days; read-out: In Vitro Cellular Activity IC50 BT474
Method in brief: as §1

cyclin B/CDK1 enzyme = molecular target: T3, cyclin B/CDK1 enzyme (Homo sapiens, UniProt P06493); assay: CDK1 ELISA kinase assay (phospho-Rb ser 795 detection); type: biochemical; conditions: In Vitro Enzyme Assays, read-out: CDK1 IC50
T3 construct: purchased New England BioLabs; host or cells: Sf9 insect cells, recombinant baculovirus
Method in brief: as §2

T2 sequence (P11802 whole entry, species assumed): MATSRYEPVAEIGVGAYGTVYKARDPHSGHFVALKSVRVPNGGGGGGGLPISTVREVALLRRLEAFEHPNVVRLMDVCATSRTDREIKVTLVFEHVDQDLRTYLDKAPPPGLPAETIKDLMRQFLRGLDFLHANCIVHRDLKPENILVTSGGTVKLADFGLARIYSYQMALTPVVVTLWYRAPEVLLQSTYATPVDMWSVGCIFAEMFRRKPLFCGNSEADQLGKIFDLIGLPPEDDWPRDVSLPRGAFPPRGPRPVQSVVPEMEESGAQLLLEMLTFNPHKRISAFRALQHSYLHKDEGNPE
T2 sequence (P24385 whole entry partner, species assumed): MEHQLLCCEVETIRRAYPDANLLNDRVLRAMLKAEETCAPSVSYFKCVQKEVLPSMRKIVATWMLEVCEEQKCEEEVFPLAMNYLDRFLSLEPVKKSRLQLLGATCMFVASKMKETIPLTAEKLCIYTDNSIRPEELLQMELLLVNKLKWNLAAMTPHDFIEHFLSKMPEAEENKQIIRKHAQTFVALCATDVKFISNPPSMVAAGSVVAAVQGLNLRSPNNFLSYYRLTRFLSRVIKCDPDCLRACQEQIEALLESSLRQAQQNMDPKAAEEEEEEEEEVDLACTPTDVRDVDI
T3 sequence (P06493 whole entry): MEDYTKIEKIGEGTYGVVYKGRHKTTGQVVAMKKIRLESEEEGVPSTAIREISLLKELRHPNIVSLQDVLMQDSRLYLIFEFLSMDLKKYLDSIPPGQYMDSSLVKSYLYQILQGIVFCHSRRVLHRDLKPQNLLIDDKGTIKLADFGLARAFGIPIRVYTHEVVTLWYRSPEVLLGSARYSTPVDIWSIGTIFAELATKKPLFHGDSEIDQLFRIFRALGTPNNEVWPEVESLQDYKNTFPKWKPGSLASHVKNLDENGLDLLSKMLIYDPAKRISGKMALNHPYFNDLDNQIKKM
T3 sequence (P14635 whole entry partner): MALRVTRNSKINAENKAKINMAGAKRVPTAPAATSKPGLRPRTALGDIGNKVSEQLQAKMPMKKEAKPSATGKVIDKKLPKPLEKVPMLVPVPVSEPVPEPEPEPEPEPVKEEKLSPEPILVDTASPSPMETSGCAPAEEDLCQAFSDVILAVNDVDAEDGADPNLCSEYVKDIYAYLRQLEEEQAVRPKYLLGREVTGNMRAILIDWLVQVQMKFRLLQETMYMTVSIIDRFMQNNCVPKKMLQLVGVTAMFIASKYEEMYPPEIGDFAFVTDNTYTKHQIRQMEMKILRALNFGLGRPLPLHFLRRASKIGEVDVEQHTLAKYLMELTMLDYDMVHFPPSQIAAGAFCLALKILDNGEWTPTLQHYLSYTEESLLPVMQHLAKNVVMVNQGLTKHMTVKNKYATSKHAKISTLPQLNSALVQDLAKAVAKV

SMILES	IC50 (cyclin E/CDK2 enzyme) [µM]	IC50 (cyclin D1/cdk 4 enzyme) [nM]	IC50 (cyclin B/CDK1 enzyme) [µM]	IC50 (HCT-116) [µM]	IC50 (MCF-7) [µM]	IC50 (LoVo) [µM]	IC50 (BT474) [µM]
O=C1NC(=O)c2ccc(Br)cc2/C1=C/Nc1ccc2c(c1)CCN2 [Example 214, (4Z)-6-Bromo-4-[(2,3-dihydro-1H-indol-5-ylamino)methylene]isoquinoline-1,3(2H,4H)-dione]	6.3	17600	> 50	39	14	> 50	6.8
COc1cc(CN/C=C2\C(=O)NC(=O)c3ccc(Br)cc32)ccn1 [Example 222, (4Z)-6-Bromo-4-({[(2-methoxypyridin-4-yl)methyl]amino}methylene)isoquinoline-1,3(2H,4H)-dione]	6.1	31700	> 50	14	13	19	13
CC1(C)Oc2cc(CN/C=C3\C(=O)NC(=O)c4ccc(Br)cc43)cc(O)c2O1 [Example 224, (4Z)-6-Bromo-4-({[(7-hydroxy-2,2-dimethyl-1,3-benzodioxol-5-yl)methyl]amino}methylene)isoquinoline-1,3(2H,4H)-dione]	4	170	45.5	6.4	7.4	7.9	9.6
O=C1NC(=O)c2ccc(Br)cc2/C1=C/NCc1cc[nH]c(=O)c1 [Example 225, (4Z)-6-Bromo-4-({[(2-oxo-1,2-dihydropyridin-4-yl)methyl]amino}methylene)isoquinoline-1,3(2H,4H)-dione]	2.7	560	> 50	> 50	> 50	> 50	19.5
CN1CCN(c2ccc(N/C=C3\C(=O)NC(=O)c4ccc(-c5ccoc5)cc43)cc2)CC1 [Example 236, (4Z)-6-(3-Furyl)-4-({[4-(4-methylpiperazin-1-yl)phenyl]amino}methylene)isoquinoline-1,3(2H,4H)-dione]	> 50	220	> 50	1.2	1.1	2.2	1
CN(CCN1CCCC1)c1ccc(N/C=C2\C(=O)NC(=O)c3ccc(Br)cc32)cc1 [Example 255, (4Z)-6-Bromo-4-[({4-[methyl(2-pyrrolidin-1-ylethyl)amino]phenyl}amino)methylene]isoquinoline-1,3(2H,4H)-dione]	> 50	2500	> 50	3.1	3.6	3.8	7.9
CN(CCN1CCCCC1)c1ccc(N/C=C2\C(=O)NC(=O)c3ccc(Br)cc32)cc1 [Example 256, (4Z)-6-Bromo-4-[({4-[methyl(2-piperidin-1-ylethyl)amino]phenyl}amino)methylene]isoquinoline-1,3(2H,4H)-dione]	> 50	4300	> 50	3.1	5.3	3.6	7.5
CN1Cc2ccc(N/C=C3\C(=O)NC(=O)c4ccc(Br)cc43)cc2C1 [Example 259, (4Z)-6-Bromo-4-{[(2-methyl-2,3-dihydro-1H-isoindol-5-yl)amino]methylene}isoquinoline-1,3(2H,4H)-dione]	2.5	1200	20.7	2.5	5.5	3.9	6.8
CN1CCN(c2ccc(N/C=C3\C(=O)NC(=O)c4ccc(-c5ccc(F)cc5)cc43)cc2)CC1 [Example 263, (4Z)-6-(4-Fluorophenyl)-4-({[4-(4-methylpiperazin-1-yl)phenyl]amino}methylene)-isoquinoline-1,3(2H,4H)-dione]	> 50	500	> 50	1.3	3.1	2.9	2.9

The next lines start with results.

IC50 (cyclin E/CDK2 enzyme) [µM]	IC50 (cyclin D1/cdk 4 enzyme) [nM]	IC50 (cyclin B/CDK1 enzyme) [µM]	SMILES	IC50 (HCT-116) [µM]	IC50 (MCF-7) [µM]	IC50 (LoVo) [µM]	IC50 (BT474) [µM]
> 50	240	> 50	CN(C)CCSc1ccc(N/C=C2\C(=O)NC(=O)c3ccc(Br)cc32)cc1 [Example 229, (4Z)-6-Bromo-4-{[(4-{[2-(dimethylamino)ethyl]thio}phenyl)amino]methylene}isoquinoline-1,3(2H,4H)-dione]	3.6	4.6	8.5	4
> 50	3600	29.6	CN(C)CCN(C)c1ccc(N/C=C2\C(=O)NC(=O)c3ccc(Br)cc32)cc1 [Example 231, (4Z)-6-Bromo-4-[({4-[[2-(dimethylamino)ethyl](methyl)amino]phenyl}amino)methylene]isoquinoline-1,3(2H,4H)-dione]	4.1	2.4	10	8.3
> 50	2700	> 50	CN1CCCN(c2ccc(N/C=C3\C(=O)NC(=O)c4ccc(Br)cc43)cc2)CC1 [Example 232, (4Z)-6-Bromo-4-({[4-(4-methyl-1,4-diazepan-1-yl)phenyl]amino}methylene)isoquinoline-1,3(2H,4H)-dione]	1.4	2.1	3.7	3.3
1.9	1200	12.3	CN(C)CCS(=O)(=O)c1ccc(N/C=C2\C(=O)NC(=O)c3ccc(Br)cc32)cc1 [Example 243]	5	5	12	13
> 50	45500	> 50	CN(CCO)c1ccc(N/C=C2\C(=O)NC(=O)c3ccc(Br)cc32)cc1 [Example 244, (4Z)-6-Bromo-4-[({4-[(2-hydroxyethyl)(methyl)amino]phenyl}amino)methylene]isoquinoline-1,3(2H,4H)-dione]	4.9	19	15	9.4
> 50	2000	> 50	CN1CCC(N(C)c2ccc(N/C=C3\C(=O)NC(=O)c4ccc(Br)cc43)cc2)C1 (centres unmarked) [Example 245, (4Z)-6-Bromo-4-[({4-[methyl(1-methylpyrrolidin-3-yl)amino]phenyl}amino)methylene]isoquinoline-1,3(2H,4H)-dione]	3.4	3	6.6	8.4
> 50	480	> 50	CN(C)CCOc1ccc(N/C=C2\C(=O)NC(=O)c3ccc(Br)cc32)cc1 [Example 258, (4Z)-6-Bromo-4-[({4-[2-(dimethylamino)ethoxy]phenyl}amino)methylene]isoquinoline-1,3(2H,4H)-dione]	3.5	6.7	5.3	8.3
14.7	22600	> 50	O=C1NC(=O)c2ccc(Br)cc2/C1=C/Nc1ccc(-n2ccnc2)cc1 [Example 260, (4Z)-6-Bromo-4-({[4-(1H-imidazol-1-yl)phenyl]amino}methylene)isoquinoline-1,3(2H,4H)-dione]	5.4	> 50	> 50	> 50
